ChEMBL document CHEMBL1201862, “PubChem BioAssay data set” (2004)
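Following 48 hours of exposure in 96-well plates, responses at five concentrations were used to interpolate endpoints linearly. GI50 marks 50% less growth.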 Calls of active or inactive are those of the source. Cut-off read from the data, not from the text of the source: active = GI50 up to about 1.1 µM and inactive = higher.

What was measured:
Assay in all cases: DTP human tumour cell line panel, 48 h
OVCAR-4 = system: OVCAR-4
A549 = system: A549
OVCAR-8 = system: OVCAR-8
HCT-15 = system: HCT-15
MOLT-4 = system: MOLT-4
COLO 205 = system: COLO 205
HCC 2998 = system: HCC 2998
Malme-3M = system: Malme-3M
HOP-92 = system: HOP-92
HOP-62 = system: HOP-62
NCI-H226 = system: NCI-H226
LOX IMVI = system: LOX IMVI
UACC-62 = system: UACC-62
KM12 = system: KM12
TK-10 = system: TK-10
NCI-H522 = system: NCI-H522
K562 = system: K562
OVCAR-5 = system: OVCAR-5
SF-539 = system: SF-539
MDA-N = system: MDA-N

Compound | GI50 (OVCAR-4) | GI50 (A549) | GI50 (OVCAR-8) | GI50 (HCT-15) [µM] | GI50 (MOLT-4) | GI50 (COLO 205) | GI50 (HCC 2998) | GI50 (Malme-3M) | GI50 (HOP-92) | GI50 (HOP-62) | GI50 (NCI-H226) | GI50 (LOX IMVI) | GI50 (UACC-62) | GI50 (KM12) | GI50 (TK-10) | GI50 (NCI-H522) | GI50 (K562) | GI50 (OVCAR-5) | GI50 (SF-539) | GI50 (MDA-N)
C=C(C)C1CC2C(C)=C(OC(C)=O)C1n1c(=O)c3cc4ccccc4cc3c(=O)n12 (stereo not drawn) | 73.3 µM (inactive) | > 72.3 µM (inactive) | > 68.7 µM (inactive) | 57.5 | 32.7 µM (inactive) | > 100 µM (inactive) | 70.8 µM (inactive) | > 89.3 µM (inactive) | 28.6 µM (inactive) | > 100 µM (inactive) | 34.7 µM (inactive) | > 84.3 µM (inactive) | 31.8 µM (inactive) | > 82 µM (inactive) | > 100 µM (inactive) | 51.5 µM (inactive) | 46.2 µM (inactive) | > 100 µM (inactive) | > 100 µM (inactive) | –
CCOC(=O)C1(C)CCC(C(=O)OC)C1=O (stereo not drawn) | > 100 µM (inactive) | > 100 µM (inactive) | > 100 µM (inactive) | 20.2 | 87.9 µM (inactive) | 44.1 µM (inactive) | 75.3 µM (inactive) | > 100 µM (inactive) | > 100 µM (inactive) | > 100 µM (inactive) | > 100 µM (inactive) | 18.1 µM (inactive) | > 100 µM (inactive) | > 100 µM (inactive) | > 100 µM (inactive) | 17.1 µM (inactive) | 32.8 µM (inactive) | > 100 µM (inactive) | > 100 µM (inactive) | –
C(=N\N=C1NCCCCN1)/c1ccc2ccccc2c1 | 43.1 µM (inactive) | 50.2 µM (inactive) | 43.7 µM (inactive) | 28.1 | 23.5 µM (inactive) | 15.9 µM (inactive) | 15.3 µM (inactive) | 16.3 µM (inactive) | 14.4 µM (inactive) | 42.2 µM (inactive) | 24.7 µM (inactive) | 15.7 µM (inactive) | 31 µM (inactive) | 26.9 µM (inactive) | 37.9 µM (inactive) | 26.7 µM (inactive) | 20.9 µM (inactive) | 25.2 µM (inactive) | 20.4 µM (inactive) | –
CS(=O)(=O)Nc1ccc2c(c1)N(S(C)(=O)=O)CC2CCl (stereo not drawn) | > 100 µM (inactive) | > 100 µM (inactive) | > 100 µM (inactive) | > 100 | > 100 µM (inactive) | > 100 µM (inactive) | > 100 µM (inactive) | > 100 µM (inactive) | > 100 µM (inactive) | > 100 µM (inactive) | > 100 µM (inactive) | > 100 µM (inactive) | > 100 µM (inactive) | > 100 µM (inactive) | > 100 µM (inactive) | > 100 µM (inactive) | > 100 µM (inactive) | > 100 µM (inactive) | > 100 µM (inactive) | –
CCCCCCc1cc2cc(C(=O)Nc3cccc(C(F)(F)F)c3)c(=N)oc2cc1O | 2.32 µM (inactive) | 2.06 µM (inactive) | 1.26 µM (inactive) | 1.43 | 0.586 µM (active) | 6.64 µM (inactive) | 2.74 µM (inactive) | 1.17 µM (inactive) | 0.348 µM (active) | 1.9 µM (inactive) | 1.06 µM (active) | 1.26 µM (inactive) | 1.53 µM (inactive) | 2.84 µM (inactive) | 4.01 µM (inactive) | 0.351 µM (active) | 0.543 µM (active) | 4.27 µM (inactive) | 1.73 µM (inactive) | –
COc1cc(/C=C/C(=N\NC(=O)c2ccccc2)c2sc(Nc3ccc(Cl)c(Cl)c3)nc2C)ccc1O | 33.4 µM (inactive) | 31.7 µM (inactive) | 33.3 µM (inactive) | 31.9 | 20.7 µM (inactive) | 34 µM (inactive) | 28.8 µM (inactive) | 29.4 µM (inactive) | < 0.01 µM (active) | 38.4 µM (inactive) | 20.5 µM (inactive) | 19.7 µM (inactive) | 7.59 µM (inactive) | 30.5 µM (inactive) | 37.5 µM (inactive) | 17 µM (inactive) | 25.2 µM (inactive) | 25.6 µM (inactive) | 40.8 µM (inactive) | –
CC1(C)CC(=O)C2=C(C1)OC1(CC2c2ccc(Cl)cc2)CC(c2ccc(Cl)cc2)C2=C(CC(C)(C)CC2=O)O1 (stereo not drawn) | 6.78 µM (inactive) | 13.6 µM (inactive) | 24.7 µM (inactive) | 9.62 | 3.13 µM (inactive) | 16 µM (inactive) | 16.3 µM (inactive) | 15.3 µM (inactive) | 3.52 µM (inactive) | 15.6 µM (inactive) | 22.4 µM (inactive) | 20.4 µM (inactive) | 23.6 µM (inactive) | 16.7 µM (inactive) | 32.4 µM (inactive) | 11.3 µM (inactive) | 8.18 µM (inactive) | 26.9 µM (inactive) | 20.5 µM (inactive) | –
c1ccc(C2C3=C(CCCC3)Nc3nnnn32)cc1 (stereo not drawn) | – | 64 µM (inactive) | > 100 µM (inactive) | > 100 | 53 µM (inactive) | > 100 µM (inactive) | – | – | – | > 100 µM (inactive) | – | > 100 µM (inactive) | 56.2 µM (inactive) | > 100 µM (inactive) | – | – | 32.4 µM (inactive) | > 100 µM (inactive) | > 100 µM (inactive) | 98.4 µM (inactive)
CCCCCCCCCC1CC(=O)Oc2cccc(O)c21 (stereo not drawn) | 33.7 µM (inactive) | 11.5 µM (inactive) | 31.8 µM (inactive) | 23.4 | 26.7 µM (inactive) | 16.4 µM (inactive) | 1.23 µM (inactive) | 18.7 µM (inactive) | 34 µM (inactive) | 34.3 µM (inactive) | 6.84 µM (inactive) | 14 µM (inactive) | 31.5 µM (inactive) | 12.5 µM (inactive) | 36.2 µM (inactive) | 20.9 µM (inactive) | 24 µM (inactive) | 28.3 µM (inactive) | 4.18 µM (inactive) | –
O=C1CCC(O)=C1O | > 100 µM (inactive) | > 100 µM (inactive) | > 100 µM (inactive) | > 100 | > 100 µM (inactive) | > 100 µM (inactive) | > 100 µM (inactive) | > 100 µM (inactive) | > 100 µM (inactive) | > 100 µM (inactive) | > 100 µM (inactive) | > 100 µM (inactive) | > 100 µM (inactive) | > 100 µM (inactive) | > 100 µM (inactive) | > 100 µM (inactive) | > 100 µM (inactive) | > 100 µM (inactive) | > 100 µM (inactive) | –
COc1ccc2c3c([nH]c2c1)[C@H](C=C(C)C)N1C(=O)[C@@H]2CCCN2C(=O)[C@@H]1C3 [FUMITREMORGIN] | > 100 µM (inactive) | > 100 µM (inactive) | 64.4 µM (inactive) | > 100 | > 100 µM (inactive) | > 100 µM (inactive) | 37.2 µM (inactive) | 78.3 µM (inactive) | 38.7 µM (inactive) | 47 µM (inactive) | > 100 µM (inactive) | > 100 µM (inactive) | 87.5 µM (inactive) | > 100 µM (inactive) | 29.1 µM (inactive) | > 100 µM (inactive) | > 100 µM (inactive) | > 100 µM (inactive) | 29.6 µM (inactive) | –
